Reference: US11969428B2, “Methods and pharmaceutical compositions for treating lymphoid malignancy” (priority 2011, dated 2024)

How the values were obtained:
Experiment in all cases: Ambit KinomeScan screening
Type in all cases: binding
Conditions in all cases: CAL-130 10 μM
PKMYT1 = molecular target: T1, PKMYT1 (Homo sapiens, UniProt Q99640)
T1 construct: purchased Ambit (KinomeScan screening service)
Experimental: (§1) CAL-130 (10 μM) was evaluated for its ability to prevent tagged kinases from interacting with immobilized “bait” ligand (Karaman et al., 2008). Results are reported as “% of control binding”, where lower numbers indicate stronger interactions with the tagged kinase. Values of >35% are considered “no hits”. PI3Kδ had the lowest percentage of control binding at 0.2% followed by PI3Kγ at 3.2% (See Table 1 below). These values indicate a high probability of a potent interaction. 353 kinases were assessed in the screen (Table 2).

HPK1 = molecular target: T2, HPK1 (Homo sapiens, UniProt Q92918)
T2 construct: Ambit (KinomeScan screening)
Experimental: as §1

TRKC = molecular target: T3, TRKC (Homo sapiens, UniProt Q16288)
T3 construct: tag, kind not specified; purchased Ambit (KinomeScan screening service)
Experimental: as §1

RIOK1 = molecular target: T4, RIOK1 (Homo sapiens, UniProt Q9BRS2)
T4 construct: unspecified tag (tagged kinase); purchased Ambit (KinomeScan screening)
Experimental: as §1

SRPK2 = molecular target: T5, SRPK2 (Homo sapiens, UniProt P78362)
T5 construct: purchased Ambit (KinomeScan screening service)
Experimental: as §1

TYK2(JH2domain) = molecular target: T6, TYK2(JH2domain) (Homo sapiens, UniProt P29597)
T6 construct: TYK2(JH2domain); tag, kind not specified; purchased Ambit (KinomeScan screening service)
Experimental: as §1

RIOK2 = molecular target: T7, RIOK2 (Homo sapiens, UniProt Q9BVS4)
T7 construct: unspecified tag (tagged kinase); purchased Ambit (KinomeScan screening)
Experimental: as §1

MARK3 = molecular target: T8, MARK3 (Homo sapiens, UniProt P27448)
T8 construct: purchased Ambit (KinomeScan screening)
Experimental: as §1

EGFR(L861Q) = molecular target: T9, EGFR(L861Q) (Homo sapiens, UniProt P00533, L861Q)
T9 construct: unspecified tag; purchased Ambit (KinomeScan screening service)
Experimental: as §1

EPHA1 = molecular target: T10, EPHA1 (Homo sapiens, UniProt P21709)
T10 construct: purchased Ambit (KinomeScan screening service)
Experimental: as §1

CLK4 = molecular target: T11, CLK4 (Homo sapiens, UniProt Q9HAZ1)
T11 construct: purchased Ambit (KinomeScan screening service)
Experimental: as §1

ABL1 = molecular target: T12, ABL1 (Homo sapiens, UniProt P00519)
T12 construct: unspecified tag ("tagged kinases"); purchased Ambit (KinomeScan screening)
Experimental: as §1

LATS2 = molecular target: T13, LATS2 (Homo sapiens, UniProt Q9NRM7)
T13 construct: unspecified tag ('tagged kinases'); purchased Ambit (KinomeScan screening service)
Experimental: as §1

EGFR = molecular target: T14, EGFR (Homo sapiens, UniProt P00533)
T14 construct: unspecified tag; purchased Ambit (KinomeScan screening service)
Experimental: as §1

CDKL2 = molecular target: T15, CDKL2 (Homo sapiens, UniProt Q92772)
T15 construct: purchased Ambit (KinomeScan screening service)
Experimental: as §1

BMPR1B = molecular target: T16, BMPR1B (Homo sapiens, UniProt O00238)
T16 construct: purchased Ambit (KinomeScan screening service)
Experimental: as §1

NDR2 = molecular target: T17, NDR2 (Homo sapiens, UniProt Q9Y2H1)
T17 construct: unspecified tag; purchased Ambit (KinomeScan screening panel)
Experimental: as §1

ABL1(E255K) = molecular target: T18, ABL1(E255K) (Homo sapiens, UniProt P00519, E255K)
T18 construct: unspecified tag ("tagged kinases"); purchased Ambit (KinomeScan screening)
Experimental: as §1

FAK = molecular target: T19, FAK (Homo sapiens, UniProt Q05397)
T19 construct: unspecified tag ("tagged kinases"); purchased Ambit (KinomeScan screening service)
Experimental: as §1

VEGFR2 = molecular target: T20, VEGFR2 (Homo sapiens, UniProt P35968)
T20 construct: tag, kind not specified; purchased Ambit (KinomeScan screening service)
Experimental: as §1

MEK2 = molecular target: T21, MEK2 (Homo sapiens, UniProt P36507)
T21 construct: purchased Ambit (KinomeScan screening)
Experimental: as §1

ZAK = molecular target: T22, ZAK (Homo sapiens, UniProt Q9NYL2)
T22 construct: purchased Ambit (KinomeScan screening service)
Experimental: as §1

RIPK2 = molecular target: T23, RIPK2 (Homo sapiens, UniProt O43353)
T23 construct: unspecified tag (tagged kinase); purchased Ambit (KinomeScan screening)
Experimental: as §1

MEK4 = molecular target: T24, MEK4 (Homo sapiens, UniProt P45985)
T24 construct: purchased Ambit (KinomeScan screening)
Experimental: as §1

CDK2 = molecular target: T25, CDK2 (Homo sapiens, UniProt P24941)
T25 construct: purchased Ambit (KinomeScan screening)
Experimental: as §1

EPHA7 = molecular target: T26, EPHA7 (Homo sapiens, UniProt Q15375)
T26 construct: purchased Ambit (KinomeScan screening service)
Experimental: as §1

MYLK2 = molecular target: T27, MYLK2 (Homo sapiens, UniProt Q9H1R3)
T27 construct: unspecified tag; purchased Ambit (KinomeScan screening panel)
Experimental: as §1

MLK3 = molecular target: T28, MLK3 (Homo sapiens, UniProt Q16584)
T28 construct: unspecified tag ('tagged kinases'); purchased Ambit (KinomeScan screening)
Experimental: as §1

PKN2 = molecular target: T29, PKN2 (Homo sapiens, UniProt Q16513)
T29 construct: purchased Ambit (KinomeScan screening service)
Experimental: as §1

MRCKB = molecular target: T30, MRCKB (Homo sapiens, UniProt Q9Y5S2)
T30 construct: unspecified tag ('tagged kinases'); purchased Ambit (KinomeScan screening)
Experimental: as §1

MLK1 = molecular target: T31, MLK1 (Homo sapiens, UniProt P80192)
T31 construct: unspecified tag ('tagged kinases'); purchased Ambit (KinomeScan screening)
Experimental: as §1

STK33 = molecular target: T32, STK33 (Homo sapiens, UniProt Q9BYT3)
T32 construct: purchased Ambit (KinomeScan screening service)
Experimental: as §1

EGFR(L747-T751DEL, SINS) = molecular target: T33, EGFR(L747-T751DEL, SINS) (Homo sapiens, UniProt P00533, DEL747-750/T751S)
T33 construct: unspecified tag; purchased Ambit (KinomeScan screening service)
Experimental: as §1

JNK2 = molecular target: T34, JNK2 (Homo sapiens, UniProt P45984)
T34 construct: purchased Ambit (KinomeScan screening)
Experimental: as §1

PIM1 = molecular target: T35, PIM1 (Homo sapiens, UniProt P11309)
T35 construct: unspecified tag; purchased Ambit (KinomeScan screening panel)
Experimental: as §1

TTK = molecular target: T36, TTK (Homo sapiens, UniProt P33981)
T36 construct: tag, kind not specified; purchased Ambit (KinomeScan screening service)
Experimental: as §1

Measured: Percent of Control Binding

T29 sequence (Q16513 whole entry): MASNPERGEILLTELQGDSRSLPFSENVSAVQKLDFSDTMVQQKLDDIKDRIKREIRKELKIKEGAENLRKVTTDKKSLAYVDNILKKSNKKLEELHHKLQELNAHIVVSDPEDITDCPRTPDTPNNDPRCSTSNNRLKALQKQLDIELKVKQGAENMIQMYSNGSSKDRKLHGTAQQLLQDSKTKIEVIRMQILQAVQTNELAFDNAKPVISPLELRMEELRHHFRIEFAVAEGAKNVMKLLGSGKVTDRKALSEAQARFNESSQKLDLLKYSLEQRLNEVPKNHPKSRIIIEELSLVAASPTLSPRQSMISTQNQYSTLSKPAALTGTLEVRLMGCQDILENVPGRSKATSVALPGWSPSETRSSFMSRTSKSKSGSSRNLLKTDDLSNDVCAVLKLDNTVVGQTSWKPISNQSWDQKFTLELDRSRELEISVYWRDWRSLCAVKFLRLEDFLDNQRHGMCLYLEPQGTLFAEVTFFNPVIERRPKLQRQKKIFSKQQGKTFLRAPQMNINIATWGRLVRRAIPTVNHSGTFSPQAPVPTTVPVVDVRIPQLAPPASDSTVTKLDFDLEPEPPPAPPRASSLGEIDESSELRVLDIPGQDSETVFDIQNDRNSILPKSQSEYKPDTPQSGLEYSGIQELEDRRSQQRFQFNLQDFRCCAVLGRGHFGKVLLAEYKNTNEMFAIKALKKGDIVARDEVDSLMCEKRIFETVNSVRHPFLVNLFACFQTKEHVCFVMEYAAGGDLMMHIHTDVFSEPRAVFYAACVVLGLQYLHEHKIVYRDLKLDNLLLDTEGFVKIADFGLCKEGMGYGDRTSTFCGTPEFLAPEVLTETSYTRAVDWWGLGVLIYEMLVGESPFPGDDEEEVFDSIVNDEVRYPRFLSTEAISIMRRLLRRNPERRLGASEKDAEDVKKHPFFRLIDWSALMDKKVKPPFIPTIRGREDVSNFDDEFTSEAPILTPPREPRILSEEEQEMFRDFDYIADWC
T2 sequence (Q92918 whole entry): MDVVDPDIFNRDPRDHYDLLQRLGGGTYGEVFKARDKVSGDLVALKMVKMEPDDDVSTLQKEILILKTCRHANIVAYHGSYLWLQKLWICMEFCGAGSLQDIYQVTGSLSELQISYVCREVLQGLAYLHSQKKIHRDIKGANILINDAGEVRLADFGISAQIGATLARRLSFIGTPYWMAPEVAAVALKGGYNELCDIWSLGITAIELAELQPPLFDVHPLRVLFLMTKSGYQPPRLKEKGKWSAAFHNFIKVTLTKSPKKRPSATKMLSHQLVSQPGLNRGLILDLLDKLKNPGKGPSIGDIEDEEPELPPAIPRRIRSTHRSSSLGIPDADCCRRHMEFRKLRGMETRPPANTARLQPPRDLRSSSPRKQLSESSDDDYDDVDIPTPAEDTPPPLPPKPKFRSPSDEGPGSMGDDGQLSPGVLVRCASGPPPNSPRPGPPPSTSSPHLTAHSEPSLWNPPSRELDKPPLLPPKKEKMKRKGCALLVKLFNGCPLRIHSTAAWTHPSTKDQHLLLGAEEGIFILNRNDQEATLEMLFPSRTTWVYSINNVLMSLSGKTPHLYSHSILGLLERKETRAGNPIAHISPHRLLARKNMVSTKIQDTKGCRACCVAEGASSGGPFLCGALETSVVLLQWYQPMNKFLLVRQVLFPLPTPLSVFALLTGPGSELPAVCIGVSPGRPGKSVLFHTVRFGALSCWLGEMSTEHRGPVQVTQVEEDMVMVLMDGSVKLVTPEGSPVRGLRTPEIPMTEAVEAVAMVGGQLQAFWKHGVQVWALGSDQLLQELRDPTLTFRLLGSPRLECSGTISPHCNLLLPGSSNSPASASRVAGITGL
T26 sequence (Q15375 28-998): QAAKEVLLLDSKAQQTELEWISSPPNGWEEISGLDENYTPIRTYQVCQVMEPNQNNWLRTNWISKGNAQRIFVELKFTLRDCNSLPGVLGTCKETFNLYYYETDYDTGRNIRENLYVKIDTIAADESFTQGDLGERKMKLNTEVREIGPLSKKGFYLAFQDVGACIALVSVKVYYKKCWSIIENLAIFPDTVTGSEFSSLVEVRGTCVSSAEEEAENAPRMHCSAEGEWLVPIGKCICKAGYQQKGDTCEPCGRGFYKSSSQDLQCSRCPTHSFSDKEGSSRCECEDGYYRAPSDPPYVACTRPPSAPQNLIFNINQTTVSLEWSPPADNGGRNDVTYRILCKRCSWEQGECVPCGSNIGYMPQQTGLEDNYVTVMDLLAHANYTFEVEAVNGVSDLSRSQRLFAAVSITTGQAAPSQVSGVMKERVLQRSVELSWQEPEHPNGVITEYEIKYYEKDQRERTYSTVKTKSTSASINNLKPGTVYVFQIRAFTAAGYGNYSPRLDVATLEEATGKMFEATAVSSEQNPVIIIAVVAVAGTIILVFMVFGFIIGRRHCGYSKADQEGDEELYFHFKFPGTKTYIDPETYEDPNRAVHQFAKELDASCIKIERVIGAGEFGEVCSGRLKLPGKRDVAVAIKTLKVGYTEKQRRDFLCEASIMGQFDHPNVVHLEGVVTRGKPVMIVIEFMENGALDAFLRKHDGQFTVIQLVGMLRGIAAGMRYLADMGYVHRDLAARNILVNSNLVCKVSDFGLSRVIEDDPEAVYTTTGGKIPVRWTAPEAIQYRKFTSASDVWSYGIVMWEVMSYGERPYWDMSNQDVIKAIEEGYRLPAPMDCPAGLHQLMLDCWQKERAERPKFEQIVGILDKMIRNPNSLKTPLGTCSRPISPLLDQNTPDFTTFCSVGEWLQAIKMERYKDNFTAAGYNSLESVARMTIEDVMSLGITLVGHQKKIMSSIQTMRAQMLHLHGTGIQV
T19 sequence (Q05397 whole entry): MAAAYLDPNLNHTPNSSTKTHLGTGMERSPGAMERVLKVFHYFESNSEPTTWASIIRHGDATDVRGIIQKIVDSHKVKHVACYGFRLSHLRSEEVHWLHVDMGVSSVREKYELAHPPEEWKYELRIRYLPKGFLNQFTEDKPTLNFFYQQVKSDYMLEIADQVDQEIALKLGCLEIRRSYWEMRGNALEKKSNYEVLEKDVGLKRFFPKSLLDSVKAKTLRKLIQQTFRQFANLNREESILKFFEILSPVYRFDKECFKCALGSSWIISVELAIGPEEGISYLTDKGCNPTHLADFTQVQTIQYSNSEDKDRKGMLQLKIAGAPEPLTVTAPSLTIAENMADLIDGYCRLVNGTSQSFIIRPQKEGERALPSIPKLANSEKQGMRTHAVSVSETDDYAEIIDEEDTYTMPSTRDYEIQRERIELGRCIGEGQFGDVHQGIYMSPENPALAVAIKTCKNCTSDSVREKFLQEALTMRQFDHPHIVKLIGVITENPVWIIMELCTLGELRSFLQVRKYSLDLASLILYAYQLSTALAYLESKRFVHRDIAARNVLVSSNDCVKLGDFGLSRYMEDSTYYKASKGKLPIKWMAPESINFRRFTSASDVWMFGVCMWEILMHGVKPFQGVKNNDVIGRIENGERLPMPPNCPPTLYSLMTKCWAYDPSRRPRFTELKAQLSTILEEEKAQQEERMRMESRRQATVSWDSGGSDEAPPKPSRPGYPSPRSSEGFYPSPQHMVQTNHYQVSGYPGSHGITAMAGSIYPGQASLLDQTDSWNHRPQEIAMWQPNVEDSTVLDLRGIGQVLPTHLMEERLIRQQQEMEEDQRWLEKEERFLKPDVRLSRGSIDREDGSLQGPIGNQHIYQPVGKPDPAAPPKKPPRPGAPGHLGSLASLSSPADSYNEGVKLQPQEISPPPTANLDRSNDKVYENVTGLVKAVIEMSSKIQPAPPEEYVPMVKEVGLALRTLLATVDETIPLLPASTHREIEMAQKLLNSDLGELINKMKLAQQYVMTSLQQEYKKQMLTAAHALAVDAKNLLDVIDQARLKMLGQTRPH
T36 sequence (P33981 whole entry): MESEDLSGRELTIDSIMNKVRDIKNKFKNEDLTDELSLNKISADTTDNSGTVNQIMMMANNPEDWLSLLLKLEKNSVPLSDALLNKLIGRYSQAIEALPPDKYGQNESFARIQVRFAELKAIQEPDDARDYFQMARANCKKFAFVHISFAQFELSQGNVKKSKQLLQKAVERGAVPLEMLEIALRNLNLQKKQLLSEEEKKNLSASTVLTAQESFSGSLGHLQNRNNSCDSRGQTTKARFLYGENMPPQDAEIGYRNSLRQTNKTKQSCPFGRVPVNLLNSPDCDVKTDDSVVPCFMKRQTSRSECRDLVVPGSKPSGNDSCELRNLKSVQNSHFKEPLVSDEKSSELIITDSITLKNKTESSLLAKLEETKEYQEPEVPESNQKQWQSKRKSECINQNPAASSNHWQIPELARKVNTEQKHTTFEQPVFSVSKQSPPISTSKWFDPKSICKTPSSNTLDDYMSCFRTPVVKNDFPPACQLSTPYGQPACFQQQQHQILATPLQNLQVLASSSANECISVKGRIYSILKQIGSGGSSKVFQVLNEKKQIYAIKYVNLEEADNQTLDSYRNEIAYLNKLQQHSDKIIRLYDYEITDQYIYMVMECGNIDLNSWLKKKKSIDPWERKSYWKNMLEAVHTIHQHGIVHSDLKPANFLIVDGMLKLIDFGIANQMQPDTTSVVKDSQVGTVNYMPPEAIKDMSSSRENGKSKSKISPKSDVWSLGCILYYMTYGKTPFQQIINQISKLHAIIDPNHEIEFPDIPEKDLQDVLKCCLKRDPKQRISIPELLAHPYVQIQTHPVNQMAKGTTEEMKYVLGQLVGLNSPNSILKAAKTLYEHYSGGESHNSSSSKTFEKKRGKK
T24 sequence (P45985 whole entry): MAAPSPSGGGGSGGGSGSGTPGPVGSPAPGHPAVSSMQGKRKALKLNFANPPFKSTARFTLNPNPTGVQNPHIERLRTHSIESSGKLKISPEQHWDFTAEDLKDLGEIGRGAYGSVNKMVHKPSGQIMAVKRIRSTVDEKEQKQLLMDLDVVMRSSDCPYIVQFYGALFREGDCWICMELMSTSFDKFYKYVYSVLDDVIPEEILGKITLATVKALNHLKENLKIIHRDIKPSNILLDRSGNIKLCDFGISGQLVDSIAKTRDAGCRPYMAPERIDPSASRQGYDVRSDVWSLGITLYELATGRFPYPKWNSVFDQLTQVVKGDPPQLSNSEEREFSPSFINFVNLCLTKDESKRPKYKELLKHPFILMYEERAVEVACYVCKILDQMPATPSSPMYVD

Cc1ccccc1-n1c(C(C)Nc2nc(N)nc3nc[nH]c23)nc2cccc(C)c2c1=O (stereo not drawn) [CAL-130]
11%: TTK
100%: all other assays above
